# Experimental data: publication PMC8036603, “Small Molecule Inhibitors of White Spot Syndrome Virus: Promise in Shrimp Seedling Culture” (International Journal of Molecular Sciences, 2021)
# Like-named read-outs stand apart in the source and are kept apart here.
# What was measured:
# [1] = tested on: white spot syndrome virus (WSSV); assay: Anti-WSSV activity in shrimp larvae, co-incubation, copy number of viral genome by RT-qPCR; format: in vivo, Litopenaeus vannamei
# [2] = Acute toxicity assay in shrimp larvae; format: in vivo, Litopenaeus vannamei; settings: Litopenaeus vannamei (shrimp) larvae, in vivo, other: immersion of larvae in test solutions, 28 °C, 95% CI in brackets; for LC50 at 24 h: 24 h exposure, read-out: LC50 (mg/L; 95% CI) 24 h; for LC50 at 48 h: 48 h exposure, read-out: LC50 (mg/L; 95% CI) 48 h; for LC50 at 72 h: 72 h exposure, read-out: LC50 (mg/L; 95% CI) 72 h
# Experimental: (§1) Shrimp (L. vannamei) larvae (total length: 0.5 ± 0.04 cm, body weight: 4.2 ± 0.4 mg, mean ± SD) were provided by Zhejiang Mariculture Research Institute Qingjiang Station (Wenzhou, China). The larvae were maintained in a culture pond at 28 °C, fed four times a day with commercial feed pellets, and collected randomly for PCR testing to verify the WSSV-free status prior to the trial.
# (§2) Acute toxicity of the coumarin derivatives was investigated by exposing larvae to a range of compound concentrations, from 0.1 mg/L to 100 mg/L of coumarin derivatives, where the dose setting was based on the data from preliminary tests in our laboratory. A DMSO-control (2%, v/v, the highest percentage of DMSO in treatments) served as the control. During the experiment, every 20 larvae were moved into six-well plates filled with 6 mL/per well freshly prepared test solutions for a 72-h incubation at 28 °C with a natural photoperiod. […] To avoid deterioration of water quality, dead shrimps were immediately removed at the point of observation. Three replicate experiments were performed.
# (§3) Compound response curves were represented by a logistic sigmoidal function with a maximal effect level (Amax) and Hill coefficient representing the sigmoidal transition (Origin 8.1; http://www.originlab.com, accessed on 25 March 2021). Statistical analyses were performed using SPSS (version 18.0) statistical software (SPSS Inc., Chicago, IL, USA). The LC50 and EC50 values with 95% CIs were calculated using probit analysis. Virus titers were log10-transformed prior to statistical analyses. Unpaired Student’s t-tests were used to compare coumarin-treated samples and negative-control DMSO samples for determining significance and data are presented as mean values ± SD.
# [3] = Solubility / precipitation in aquacultural water; format: physicochemical; settings: for lowest precipitation concentration / lowest precipitation concentration (bracketed value in LC50 48 h column) / lowest precipitation concentration (bracketed value in LC50 72 h column): test range 0.4~100 mg/L, aquacultural water, LC50 NONE
# Experimental: Prior to evaluation of the anti-WSSV activity of coumarins, the safety doses for larvae needed to be determined. […] In contrast, the electron-withdrawing group was more toxic than the electron-donating group, with the LC50 of A5‒A8 being <5 mg/L at 72 h. […] Based on preliminary analysis of the structure-activity relationship (SAR) of similar spatial structures with different substituents of electron-donating and electron-withdrawing groups to coumarins A1, B1, and C1, we considered that […] of compounds; this provides a basis for further research.
# All conventional reagents and solvents are purchased directly from commercial companies and no further purification is required. Organic solvents were purchased from Sinopharm chemical reagent Co., Ltd. and purified by distillation and moisture was excluded from the glass apparatus using CaCl2 drying tubes. Throughout this study, silica gel H (200–300 mesh; Qingdao Marine Chemical Factory, Qingdao, China) was used for the column chromatography. For thin layer chromatographic (TLC) plates, Silica gel (GF254) (Qingdao Marine Chemical Factory, Qingdao, China) were used for thin layer chromatographic (TLC) analysis, and all of the spots and bands were detected by UV irradiation (254, 365 nm). The intermediates and products were characterized by electrospray ionization mass spectrometry (TripleTOF5600þ; AB SCIEX Pte. Ltd., Boston, MA, USA), ^1H NMR and ^13C NMR (Bruker AM500 spectrometer; Bruker Corporation, Berne, Switzerland). The derivatives were dissolved in 100% dimethyl sulfoxide (DMSO; Beyotime Biotechnology, Haimen, China), stored at 4 °C prior to antiviral evaluation, and used within 6 months. For solubility, the stock solutions, at a concentration of 50 mg/mL, were sonicated for approximately 10 min to ensure that the derivatives were fully dissolved and mixed.
# [4] = tested on: Shrimp (L. vannamei) larvae; assay: Acute toxicity assay in shrimp larvae; format: in vivo, Litopenaeus vannamei; settings: after 72 h of exposure
# Experimental: as §1, §2, §3
# [5] = tested on: white spot syndrome virus (WSSV); settings: cited from earlier work
# [6] = Whispovirus xiabaidian, 72 h, WSSV-infected larvae, copy number of viral genome, 72 h; 95% CI in brackets; read-out: EC50 (mg/L; 95% CI), median effective concentration
# [7] = WSSV-infected larvae, copy number of viral genome, 72 h; 95% CI in brackets
# [8] = Whispovirus xiabaidian, 72 h, read-out: EC50 (mg/L; 95% CI), median effective concentration, WSSV-infected larvae, copy number of viral genome, 72 h; 95% CI in brackets
# [9] = six-point dose-response, viral genome copy number in larvae
SMILES,LC50 at 24 h [2] [mg/L],LC50 at 48 h [2] [mg/L],LC50 at 72 h [2] [mg/L],further results
"O=C1Nc2c(c(=O)oc3ccccc23)C(c2ccccc2)N1 (centres unmarked) [A1, 4-phenyl-3,4-dihydro-2H-chromeno[4,3-d]pyrimidine-2,5(1H)-dione]",95.5,71.4,32.5,"EC50 [1, 6]: 21.5 mg/L"
"Cc1ccc(C2NC(=O)Nc3c2c(=O)oc2ccccc32)cc1 (centres unmarked) [A2, 4-(p-tolyl)-3,4-dihydro-2H-chromeno[4,3-d]pyrimidine-2,5(1H)-dione]",15,14.3,10,"EC50 (mg/L; 95% CI), median effective concentration [1, 7]: 05.037 (4.076~7.593) mg/L; EC50 [1, 6]: < 10 mg/L"
"COc1ccc(C2NC(=O)Nc3c2c(=O)oc2ccccc32)cc1 (centres unmarked) [A3, 4-(4-methoxyphenyl)-3,4-dihydro-2H-chromeno[4,3-d]pyrimidine-2,5(1H)-dione]",26.9,24.5,21.1,"EC50 [1, 6]: 14.9 mg/L"
"O=C1Nc2c(c(=O)oc3ccccc23)C(c2ccc(O)cc2)N1 (centres unmarked) [A4, 4-(4-hydroxyphenyl)-3,4-dihydro-2H-chromeno[4,3-d]pyrimidine-2,5(1H)-dione]",,,,"EC50 [1, 8]: 21.7 mg/L; inhibitory efficiency on WSSV replication [1, 9]: exceeded 90%; lowest precipitation concentration [3]: NONE (50) mg/L; lowest precipitation concentration (bracketed value in LC50 48 h column) [3]: NONE (50) mg/L; lowest precipitation concentration (bracketed value in LC50 72 h column) [3]: NONE (50) mg/L"
"O=C1Nc2c(c(=O)oc3ccccc23)C(c2ccc(F)cc2)N1 (centres unmarked) [A5, 4-(4-fluorophenyl)-3,4-dihydro-2H-chromeno[4,3-d]pyrimidine-2,5(1H)-dione]",16.6,11.7,10.1,"EC50 (mg/L; 95% CI), median effective concentration [1, 7]: 08.416 (7.137~11.317) mg/L; EC50 [1, 6]: < 10 mg/L"
"O=C1Nc2c(c(=O)oc3ccccc23)C(c2ccc(Cl)cc2)N1 (centres unmarked) [A6, 4-(4-chlorophenyl)-3,4-dihydro-2H-chromeno[4,3-d]pyrimidine-2,5(1H)-dione]",2.58,2.48,2.35,
"O=C1Nc2c(c(=O)oc3ccccc23)C(c2ccc(Br)cc2)N1 (centres unmarked) [A7, 4-(4-bromophenyl)-3,4-dihydro-2H-chromeno[4,3-d]pyrimidine-2,5(1H)-dione]",14.1,5.68,3.37,
"O=C1Nc2c(c(=O)oc3ccccc23)C(c2ccc([N+](=O)[O-])cc2)N1 (centres unmarked) [A8, 4-(4-nitrophenyl)-3,4-dihydro-2H-chromeno[4,3-d]pyrimidine-2,5(1H)-dione]",8.76,3.43,1.61,
"N#Cc1ccc(C2NC(=O)Nc3c2c(=O)oc2ccccc32)cc1 (centres unmarked) [A9, 4-(2,5-dioxo-1,3,4,5-tetrahydro-2H-chromeno[4,3-d]pyrimidin-4-yl)benzonitrile]",19.8,18,7.33,
"O=c1oc2ccccc2c2c1C(c1ccccc1)NC(=S)N2 (centres unmarked) [B1, 4-phenyl-2-thioxo-1,2,3,4-tetrahydro-5H-chromeno[4,3-d]pyrimidin-5-one]",15,12.8,10.5,
"Cc1ccc(C2NC(=S)Nc3c2c(=O)oc2ccccc32)cc1 (centres unmarked) [B2, 2-thioxo-4-(p-tolyl)-1,2,3,4-tetrahydro-5H-chromeno[4,3-d]pyrimidin-5-one]",23.9,18.6,14.7,
"COc1ccc(C2NC(=S)Nc3c2c(=O)oc2ccccc32)cc1 (centres unmarked) [B3, 4-(4-methoxyphenyl)-2-thioxo-1,2,3,4-tetrahydro-5H-chromeno[4,3-d]pyrimidin-5-one]",66.2,64.1,41.7,"EC50 [1, 6]: 25.6 mg/L"
"O=c1oc2ccccc2c2c1C(c1ccc(O)cc1)NC(=S)N2 (centres unmarked) [B4, 4-(4-hydroxyphenyl)-2-thioxo-1,2,3,4-tetrahydro-5H-chromeno[4,3-d]pyrimidin-5-one]",,,,"EC50 [1, 8]: 22.6 mg/L; inhibitory efficiency on WSSV replication [1, 9]: exceeded 90%; lowest precipitation concentration [3]: NONE (50) mg/L; lowest precipitation concentration (bracketed value in LC50 48 h column) [3]: NONE (50) mg/L; lowest precipitation concentration (bracketed value in LC50 72 h column) [3]: NONE (50) mg/L"
"O=c1oc2ccccc2c2c1C(c1ccc(F)cc1)NC(=S)N2 (centres unmarked) [B5, 4-(4-fluorophenyl)-2-thioxo-1,2,3,4-tetrahydro-5H-chromeno[4,3-d]pyrimidin-5-one]",16.6,8.87,8.4,
"O=c1oc2ccccc2c2c1C(c1ccc(Cl)cc1)NC(=S)N2 (centres unmarked) [B6, 4-(4-chlorophenyl)-2-thioxo-1,2,3,4-tetrahydro-5H-chromeno[4,3-d]pyrimidin-5-one]",8.85,6.63,4.5,
"O=c1oc2ccccc2c2c1C(c1ccc(Br)cc1)NC(=S)N2 (centres unmarked) [B7, 4-(4-bromophenyl)-2-thioxo-1,2,3,4-tetrahydro-5H-chromeno[4,3-d]pyrimidin-5-one]",10,4.81,4.46,
"O=c1oc2ccccc2c2c1C(c1ccc([N+](=O)[O-])cc1)NC(=S)N2 (centres unmarked) [B8, 4-(4-nitrophenyl)-2-thioxo-1,2,3,4-tetrahydro-5H-chromeno[4,3-d]pyrimidin-5-one]",13.6,7.48,3.06,
"N#Cc1ccc(C2NC(=S)Nc3c2c(=O)oc2ccccc32)cc1 (centres unmarked) [B9, 4-(5-oxo-2-thioxo-1,3,4,5-tetrahydro-2H-chromeno[4,3-d]pyrimidin-4-yl)benzonitrile]",37.1,31.5,9.63,
N#CC1=C(N)Oc2c(c(=O)oc3ccccc23)C1c1ccccc1 (centres unmarked) [C1],18.4,16.6,9.18,"EC50 [1, 8]: 2.9 mg/L"
COc1ccc(C2C(C#N)=C(N)Oc3c2c(=O)oc2ccccc32)cc1 (centres unmarked) [C3],22.3,17.3,17.3,"EC50 [1, 8]: 14.8 mg/L"
N#CC1=C(N)Oc2c(c(=O)oc3ccccc23)C1c1ccc(O)cc1 (centres unmarked) [C4],,,,"EC50 [1, 6]: 61.2 mg/L; inhibitory efficiency on WSSV replication [1, 9]: exceeded 90%"
N#CC1=C(N)Oc2c(c(=O)oc3ccccc23)C1c1ccc(F)cc1 (centres unmarked) [C5],,,,"EC50 [1, 8]: 8.82 mg/L; inhibitory efficiency on WSSV replication [1, 9]: exceeded 90%; signs of toxicity at the saturation concentration [4]: No signs of toxicity were observed; lowest precipitation concentration [3]: NONE (16) mg/L; lowest precipitation concentration (bracketed value in LC50 48 h column) [3]: NONE (16) mg/L; lowest precipitation concentration (bracketed value in LC50 72 h column) [3]: NONE (16) mg/L; solubility in aquacultural water ([3]; tested concentration 16 mg/L, 28 °C): insoluble"
N#CC1=C(N)Oc2c(c(=O)oc3ccccc23)C1c1ccc(Cl)cc1 (centres unmarked) [C6],,44.2,17.7,"EC50 [1, 8]: 8.54 mg/L; inhibitory efficiency on WSSV replication [1, 9]: exceeded 90%"
N#CC1=C(N)Oc2c(c(=O)oc3ccccc23)C1c1ccc(C#N)cc1 (centres unmarked) [C9],,,,"EC50 [1, 8]: 60.5 mg/L"
C=CCN1C(=O)/C(=C/c2ccc(-c3ccccc3)o2)SC1=S [LJ001],,,,half-life in aquaculture water [5]: less than 2 days
C=CCN1C(=O)S/C(=C\c2ccc(-c3ccccc3)o2)C1=O [LJ025],,,,half-life in aquaculture water [5]: less than 2 days
